Results as given in ChEMBL document CHEMBL5029190, “A Series of Pyrazole Analogs Binding to KRASG12C as Potential Cancer Treatment” (ACS Med Chem Lett, 2022).

Biological target: GTPase KRas (Homo sapiens, UniProt P01116, G12C)
Experiment: Inhibition of human KRAS G12C mutant incubated for 2 hrs by scintillation counter based covalent competition assay

SMILES	IC50
C=CC(=O)N1CC2(CC(n3nc(-c4ccc5c(c4)CCN5C(=O)CN4CC[C@H](F)C4)c(-c4c(Cl)c(C)cc5[nH]ncc45)c3C)C2)C1 (stereo in doubt; 76a)	0.015 µM
C=CC(=O)N1CC2(CC(n3nc(-c4ccc5c(c4)CCN5C(=O)CN4CC[C@H](F)C4)c(-c4c(Cl)c(C)cc5[nH]ncc45)c3C)C2)C1 (stereo in doubt; 76b)	13.3 µM
